Data from ChEMBL document CHEMBL1140501, “Validation of an automated procedure for the prediction of relative free energies of binding on a set of aldose reductase inhibitors” (Bioorg Med Chem, 2007).

These compounds were tested against Aldo-keto reductase family 1 member B1 (Homo sapiens, UniProt P15121) (assay: Inhibition of aldose reductase).

| Compound | IC50 [nM] |
| --- | --- |
| O=C(O)COc1cc(F)ccc1C(=S)NCc1ccc(Br)cc1F | 30 |
| O=C(O)COc1ccccc1C(=O)NCc1ccc(Br)cc1F | 176 |
| O=C(O)Cn1c(=O)n(Cc2ccc(Br)cc2F)c(=O)c2ccc(Cl)cc21 [ZENARESTAT] | 44 |
| O=C(O)Cc1c(Cl)cccc1Cl | 4400 |
| O=C(O)Cc1nn(Cc2ccc(Br)cc2F)c(=O)c2ccccc12 [PONALRESTAT] | 56.5 |
| O=C1C[C@]2(C(=O)N1)C(=O)N(Cc1ccc(Br)cc1F)C(=O)c1cccn12 | 190 |
| O=C(O)Cc1nn(Cc2nc3ccc(C(F)(F)F)cc3s2)c(=O)c2ccccc12 | 3.1 |
| Cc1ccccc1CC(=O)Nc1cc(C)c(S(=O)(=O)NCC(=O)O)c(C)c1 | 108 |
| O=C1C[C@@]2(C(=O)N1)C(=O)N(Cc1ccc(Br)cc1F)C(=O)c1cccn12 | 15 |
| O=C(O)Cc1ccccc1 [PHENYLACETIC ACID] | 96000 |
